Measurements taken from ChEMBL document CHEMBL1136090, “Discovery of a potent and selective series of pyrazole bacterial methionyl-tRNA synthetase inhibitors” (Bioorg Med Chem Lett, 2003).
pIC50: −log10 of the molar value.

Experiments:
[1] = biological target: T1, Methionine--tRNA ligase, cytoplasmic (Homo sapiens, UniProt P56192); test: Inhibitory activity against human methionyl-tRNA synthetase (hMetRS).
T1 sequence (P56192 whole entry): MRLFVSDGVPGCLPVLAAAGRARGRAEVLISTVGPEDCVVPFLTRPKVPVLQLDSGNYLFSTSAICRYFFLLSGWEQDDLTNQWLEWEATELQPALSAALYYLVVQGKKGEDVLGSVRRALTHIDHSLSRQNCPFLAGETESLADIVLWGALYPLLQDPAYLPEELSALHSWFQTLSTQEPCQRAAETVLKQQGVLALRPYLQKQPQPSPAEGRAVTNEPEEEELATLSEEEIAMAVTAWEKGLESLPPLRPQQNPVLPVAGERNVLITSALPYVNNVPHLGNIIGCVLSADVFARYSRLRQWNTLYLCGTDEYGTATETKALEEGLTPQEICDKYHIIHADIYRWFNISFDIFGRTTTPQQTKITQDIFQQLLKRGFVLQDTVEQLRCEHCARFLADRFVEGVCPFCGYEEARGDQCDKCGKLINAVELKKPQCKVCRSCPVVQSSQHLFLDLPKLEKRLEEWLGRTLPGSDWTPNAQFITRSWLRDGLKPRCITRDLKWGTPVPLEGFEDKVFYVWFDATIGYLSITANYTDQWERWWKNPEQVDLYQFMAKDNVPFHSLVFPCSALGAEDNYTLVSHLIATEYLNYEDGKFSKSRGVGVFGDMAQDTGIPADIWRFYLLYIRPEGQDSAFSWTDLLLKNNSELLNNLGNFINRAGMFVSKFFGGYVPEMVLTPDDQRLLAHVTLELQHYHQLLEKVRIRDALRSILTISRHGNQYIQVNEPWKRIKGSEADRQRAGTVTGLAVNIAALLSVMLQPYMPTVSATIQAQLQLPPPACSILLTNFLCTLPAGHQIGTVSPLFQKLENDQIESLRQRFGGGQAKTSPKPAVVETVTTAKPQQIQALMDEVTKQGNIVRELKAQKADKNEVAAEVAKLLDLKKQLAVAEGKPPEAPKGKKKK

[2] = tested on: Staphylococcus aureus subsp. aureus MW2; test: Selectivity ratio for inhibition of human Methionyl-tRNA synthetase to that of Staphylococcus aureus Methionyl-tRNA synthetase.

Structure (SMILES)	pIC50 [1]	Ratio [2]
O=C(O)c1cc(-c2ccc(-c3ccc(Cl)cc3Cl)cc2)n(-c2cccnc2)n1	4.33	157
NC(=O)c1cc(-c2ccc(-c3ccc(Cl)cc3Cl)cc2)n(-c2ccccn2)n1	< 4.00	> 34
O=C(O)c1cc(-c2ccc(-c3ccccc3)cc2)n(-c2ccc(Cl)cc2Cl)n1	4.35	1
O=C(O)c1cc(-c2ccc(-c3ccc(Cl)cc3Cl)cc2)n(CCO)n1	< 4.00	> 22
O=C(O)c1cc(-c2ccc(-c3ccc(Cl)cc3Cl)cc2)nn1Cc1ccccn1	4.65	8
O=C(O)c1cc(-c2ccc(-c3ccc(Cl)cc3Cl)cc2)n(-c2ccccn2)n1	< 4.00	> 159
O=C(O)c1cc(-c2ccc(-c3ccc(Cl)cc3Cl)cc2)n(Cc2ccncc2)n1	4.58	52
CCn1nc(C(=O)O)cc1-c1ccc(-c2ccc(Cl)cc2Cl)cc1	4.33	45

Next, values leading:

pIC50 [1]	Ratio [2]	Structure (SMILES)
4.47	1	O=C(O)c1cc(-c2ccc(-c3ccc(C(F)(F)F)cc3)cc2)n(-c2ccc(Cl)cc2Cl)n1
4.97	82	Clc1ccc(-c2ccc(-c3cc(-c4nnn[nH]4)nn3-c3cccnc3)cc2)c(Cl)c1
4.68	1	O=C(O)c1cc(-c2ccc(-c3ccc(F)c(Cl)c3)cc2)n(-c2ccc(Cl)cc2Cl)n1
4.92	2	O=C(O)c1cc(-c2ccc(-c3ccc(Cl)cc3Cl)cc2)n(-c2ccc(Cl)cc2Cl)n1
4.86	106	O=C(NCc1nn[nH]n1)c1cc(-c2ccc(-c3ccc(Cl)cc3Cl)cc2)n(-c2cccnc2)n1
4.39	1	O=C(O)c1cccc(-c2ccc(-c3cc(C(=O)O)nn3-c3ccc(Cl)cc3Cl)cc2)c1
4.00	29	O=C(O)Cn1nc(C(=O)O)cc1-c1ccc(-c2ccc(Cl)cc2Cl)cc1
< 4.00	> 152	O=C(O)c1cc(-c2ccc(-c3ccc(Cl)cc3Cl)cc2)n(Cc2cccnc2)n1
4.38	1	O=C(O)c1cc(-c2ccc(-c3ccc(F)cc3)cc2)n(-c2ccc(Cl)cc2Cl)n1
< 4.00	> 10	COc1ccc(-n2nc(C(=O)O)cc2-c2ccc(-c3ccc(Cl)cc3Cl)cc2)cc1
